Data taken from patent US12264173B2 (GILEAD SCIENCES, INC., priority 2020, dated 2025).
Like-named read-outs stand apart in the source and are kept apart here.

Assays:
RSV A2 = test: RSV NHBE EC50 (RSV A2 antiviral assay in NHBE cells); type: cell-based; details: read-out: RSV NHBE EC50
Procedure: Normal human bronchial epithelial (NHBE) cells were purchased from Lonza (Walkersville, MD, Cat #CC-2540) and cultured in Bronchial Epithelial Growth Media (BEGM) (Lonza, Walkersville, MD, Cat #CC-3170). The cells were passaged 1-2 times per week to maintain <80% confluency. The NHBE cells were discarded after 6 passages in culture.
To conduct the RSV A2 antiviral assay, NHBE cells were plated in 96-well plates at a density of 7,500 cells per well in BEGM and allowed to attach overnight at 37° C. Following attachment, 100 μL of cell culture media was removed and 3-fold serially diluted compound was added using a Hewlett-Packard D300 Digital Dispenser. The final concentration of DMSO was normalized to 0.05%. Following compound addition, the NHBE cells were infected by the addition of 100 μL of RSV A2 at a titer of 1×10^4.5 tissue culture infectious doses/mL in BEGM and then incubated at 37° C. for 4 days. The NHBE cells were then allowed to equilibrate to 25° C. and cell viability was determined by removing 100 μL of culture medium and adding 100 μL of Cell-Titer Glo viability reagent. The mixtures were incubated for 10 minutes at 25° C., and the luminescence signal was quantified on an Envision luminescence plate reader.

RSV strain A2 = test: microbe, parasite or virus in culture; type: cell-based; details: read-out: RSV HEp-2 EC50
Procedure: Antiviral activity against RSV is determined using an infectious cytopathic cell protection assay in HEp-2 cells. In this assay, compounds inhibiting viral infection and/or replication produce a cytoprotective effect against the virus-induced cell killing that can be quantified using a cell viability reagent. The techniques used here are novel adaptations of methods described in published literature (Chapman et al., Antimicrob Agents Chemother. 2007, 51(9):3346-53.).
HEp-2 cells are obtained from ATCC (Manassas, VI) and maintained in MEM media supplemented with 10% fetal bovine serum and penicillin/streptomycin. Cells are passaged twice a week and kept at subconfluent stage. Commercial stock of RSV strain A2 (Advanced Biotechnologies, Columbia, MD) is titered before compound testing to determine the appropriate dilution of the virus stock that generates desirable cytopathic effect in HEp-2 cells.
For antiviral tests, HEp-2 cells are grown in large cell culture flasks to near confluency but not fully so. The compounds to be tested are prediluted in DMSO in 384-well compound dilution plates, either in an 8 or 40 sample per plate standardized dose response format. 3-fold serial dilution increments of each test compound are prepared in the plates and test samples are transferred via acoustic transfer apparatus (Echo, Labcyte) at 100 nL per well into cell culture assay 384-well plates. Each compound dilution is transferred in single or quadruplicate samples into dry assay plates, which are stored until assay is ready to go. The positive and negative controls are laid out in opposite on ends of the plate in vertical blocks (1 column).
Subsequently, an infectious mixture is prepared using an appropriate dilution of virus stock previously determined by titration with cells at a density of 50,000/mL and 20 µL/well is added to test plates w/compounds via automation (uFlow, Biotek). Each plate includes negative and positive controls (16 replicates each) to create 0% and 100% virus inhibition standards, respectively. Following the infection with RSV, testing plates are incubated for 4 days in a 37° C. cell culture incubator. After the incubation, a cell viability reagent, Cell TiterGlo (Promega, Madison, WI) is added to the assay plates, which are incubated briefly, and a luminescent readout is measured (Envision, Perkin Elmer) in all the assay plates. The RSV-induced cytopathic effect, percentage inhibition, is determined from the levels of remaining cell viability. […] Various potent anti-RSV tool compounds are used as positive controls for antiviral activity.

[1] = human respiratory syncytial virus, NHBE, 96 h, Table 3, NHBE cells, RSV A2, 4 days
[2] = human respiratory syncytial virus, HEp-2, 96 h, Table 3, HEp-2 cells, RSV A2, 4 days
[3] = Table 3, NHBE cells, RSV A2, 4 days
[4] = Table 3, HEp-2 cells, RSV A2, 4 days

SMILES | EC50 (RSV A2; [1]) [nM] | EC50 (RSV strain A2; [2]) [nM] | further results
CCCCOC(=O)[C@H](C)NP(=O)(OC[C@@]1(C#N)O[C@@H](c2ccc3c(N)ncnn23)[C@H](OC(=O)C(C)C)[C@@H]1OC(=O)C(C)C)Oc1ccccc1 (mixture of isomers) [Example 225, (2R,3S,4S,5S)-5-(4-aminopyrrolo[2,1-f][1,2,4]triazin-7-yl)-2-((((((S)-1-butoxy-1-oxopropan-2-yl)amino)(phenoxy)phosphoryl)oxy)methyl)-2-cyanotetrahydrofuran-3,4-diyl bis(2-methylpropanoate)] | 14 | – | –
COC(=O)[C@H](C)NP(=O)(O)OC[C@@]1(C#N)O[C@@H](c2ccc3c(N)ncnn23)[C@H](OC(=O)C(C)C)[C@@H]1OC(=O)C(C)C [Example 242, ((2R,3S,4S,5S)-5-(4-aminopyrrolo[2,1-f][1,2,4]triazin-7-yl)-2-cyano-3,4-bis(isobutyryloxy)tetrahydrofuran-2-yl)methyl ((S)-1-methoxy-1-oxopropan-2-yl)phosphoramidate] | > 5000 | 7190 | –
CCC(=O)OC1[C@H](c2ccc3c(N)ncnn23)O[C@](C#N)(COP(=O)(N[C@@H](C)C(=O)OCC2CC2)Oc2ccccc2)[C@H]1OC(=O)CC (stereo in doubt) [Example 98, (2R,3S,4R,5S)-5-(4-aminopyrrolo[2,1-f][1,2,4]triazin-7-yl)-2-cyano-2-((((((S)-1-(cyclopropylmethoxy)-1-oxopropan-2-yl)amino)(phenoxy)phosphoryl)oxy)methyl) tetrahydrofuran-3,4-diyl dipropionate] | 17 | 48 | –
CC(=O)O[C@H]1[C@H](c2ccc3c(N)ncnn23)O[C@](C#N)(CO[P@@](=O)(N[C@@H](C)C(=O)OC2CCCCC2)Oc2ccccc2)[C@H]1OC(C)=O [Example 81, (2R,3S,4S,5S)-5-(4-aminopyrrolo[2,1-f][1,2,4]triazin-7-yl)-2-cyano-2-((((S)-(((S)-1-(cyclohexyloxy)-1-oxopropan-2-yl)amino)(phenoxy)phosphoryl)oxy)methyl) tetrahydrofuran-3,4-diyl diacetate] | 22 | 194 | –
CC(C)C(=O)O[C@H]1[C@H](c2ccc3c(N)ncnn23)O[C@](C#N)(COP(=O)(N[C@@H](C)C(=O)OCCN2CCOCC2)Oc2ccccc2)[C@H]1OC(=O)C(C)C (stereo partly drawn) [Example 223, (2R,3S,4S,5S)-5-(4-aminopyrrolo[2,1-f][1,2,4]triazin-7-yl)-2-cyano-2-((((((S)-1-(2-morpholinoethoxy)-1-oxopropan-2-yl)amino)(phenoxy)phosphoryl)oxy)methyl) tetrahydrofuran-3,4-diyl bis(2-methylpropanoate)] | 223 | 1720 | –
CC(C)C(=O)OC1C(c2ccc3c(N)ncnn23)OC(C#N)(COP(=O)(NC(C)C(=O)OC2CCN(C)C2)Oc2ccccc2)C1OC(=O)C(C)C (single isomer, unassigned) [Example 233] | – | – | EC50 (RSV A2; [3]): 29 nM; EC50 (RSV strain A2; [4]): 127 nM
CCCCOC(=O)C(C)NP(=O)(OCC1(C#N)OC(c2ccc3c(N)ncnn23)C(OC(=O)C(C)C)C1OC(=O)C(C)C)Oc1ccccc1 (single isomer, unassigned) [Example 227] | – | – | EC50 (RSV A2; [3]): 12 nM; EC50 (RSV strain A2; [4]): 17 nM
CCOC(=O)[C@H](C)NP(=O)(N[C@@H](C)C(=O)OCC)OC[C@@]1(C#N)O[C@@H](c2ccc3c(NC(=O)C(C)C)ncnn23)[C@H](OC(=O)C(C)C)[C@@H]1OC(=O)C(C)C [Example 145, ((2R,3S,4R,5S)-5-(4-isobutyramidopyrrolo[2,1-f][1,2,4]triazin-7-yl)-2-cyano-3,4-diisobutylatetetrahydrofuran-2-yl)methyl bis-ethyl L-alaninate phosphate] | 40 | – | –
CC(C)C(=O)O[C@H]1[C@H](c2ccc3c(N)ncnn23)O[C@](C#N)(COP(=O)(N[C@@H](C)C(=O)O[C@@H]2CCOC2)Oc2ccccc2)[C@H]1OC(=O)C(C)C (single isomer, unassigned) [Example 244] | – | – | EC50 (RSV A2; [3]): 21 nM; EC50 (RSV strain A2; [4]): 63 nM
COC(=O)[C@H](C)NP(=S)(OC[C@@]1(C#N)O[C@@H](c2ccc3c(N)ncnn23)[C@H](OC(=O)C(C)C)[C@@H]1OC(=O)C(C)C)Oc1ccccc1 (stereo partly drawn) [Example 250, (2R,3S,4S,5S)-5-(4-aminopyrrolo[2,1-f][1,2,4]triazin-7-yl)-2-cyano-2-((((((S)-1-methoxy-1-oxopropan-2-yl)amino)(phenoxy)phosphorothioyl)oxy)methyl) tetrahydrofuran-3,4-diyl bis(2-methylpropanoate)] | – | – | EC50 (RSV A2; human respiratory syncytial virus, NHBE, 96 h): 2420 nM; EC50 (RSV strain A2; human respiratory syncytial virus, HEp-2, 96 h): 3930 nM
CC(C)C(=O)O[C@H]1[C@H](c2ccc3c(N)ncnn23)O[C@](C#N)(COP(=O)(N[C@@H](C)C(=O)OCC(C)(C)OP(=O)(O)O)Oc2ccccc2)[C@H]1OC(=O)C(C)C (stereo partly drawn) [Example 262, (2R,3S,4S,5S)-5-(4-aminopyrrolo[2,1-f][1,2,4]triazin-7-yl)-2-cyano-2-((((((S)-1-(2-methyl-2-(phosphonooxy)propoxy)-1-oxopropan-2-yl)amino)(phenoxy)phosphoryl)oxy)methyl)tetrahydrofuran-3,4-diyl bis(2-methylpropanoate)] | – | 163 | –
CC(C)C(=O)O[C@H]1[C@H](c2ccc3c(N)ncnn23)O[C@](C#N)(COP(=O)(N[C@@H](C)C(=O)OCC(C)(C)O)Oc2ccccc2)[C@H]1OC(=O)C(C)C (stereo partly drawn) [Example 256, (2R,3S,4S,5S)-5-(4-aminopyrrolo[2,1-f][1,2,4]triazin-7-yl)-2-cyano-2-((((((S)-1-(2-hydroxy-2-methylpropoxy)-1-oxopropan-2-yl)amino)(phenoxy)phosphoryl)oxy)methyl)tetrahydrofuran-3,4-diyl bis(2-methylpropanoate)] | 20 | – | –
COC(=O)[C@H](C)NP(=O)(OC[C@@]1(C#N)O[C@@H](c2ccc3c(N)ncnn23)[C@H](OC(=O)C(C)C)[C@@H]1OC(=O)C(C)C)Oc1ccc(C[C@H](N)C(=O)OC(C)C)cc1 (stereo partly drawn) [Example 251, (2R,3S,4S,5S)-2-((((4-((S)-2-amino-3-isopropoxy-3-oxopropyl)phenoxy)(((S)-1-methoxy-1-oxopropan-2-yl)amino)phosphoryl)oxy)methyl)-5-(4-aminopyrrolo[2,1-f][1,2,4]triazin-7-yl)-2-cyanotetrahydrofuran-3,4-diyl bis(2-methylpropanoate)] | 37 | 186 | –
CCOC(=O)[C@H](C)N[P@@](=O)(OC[C@@]1(C#N)O[C@@H](c2ccc3c(N)ncnn23)[C@H](OC(=O)C(C)C)[C@@H]1OC(=O)C(C)C)Oc1ccccc1 (single isomer, unassigned) [Example 249] | 24 | 47 | –
CCCCOC(=O)C(C)NP(=O)(OCC1(C#N)OC(c2ccc3c(N)ncnn23)C(OC(=O)C(C)C)C1OC(=O)C(C)C)Oc1ccccc1 (single isomer, unassigned) [Example 226] | – | – | EC50 (RSV A2; [3]): 9 nM; EC50 (RSV strain A2; [4]): 9 nM
CCOC(=O)[C@H](C)NP(=O)(OC[C@@]1(C#N)O[C@@H](c2ccc3c(N)ncnn23)[C@H](OC(=O)C(C)C)[C@@H]1OC(=O)C(C)C)Oc1ccccc1 (mixture of isomers) [Example 248, (2R,3S,4S,5S)-5-(4-aminopyrrolo[2,1-f][1,2,4]triazin-7-yl)-2-cyano-2-((((((S)-1-ethoxy-1-oxopropan-2-yl)amino)(phenoxy)phosphoryl)oxy)methyl)tetrahydrofuran-3,4-diyl bis(2-methylpropanoate)] | – | 23 | –
CCOCCOCCOC(=O)[C@H](C)NP(=O)(OC[C@@]1(C#N)O[C@@H](c2ccc3c(N)ncnn23)[C@H](OC(=O)C(C)C)[C@@H]1OC(=O)C(C)C)Oc1ccccc1 (single isomer, unassigned) [Example 263] | – | 23 | –
